pKd: −log10 of the molar value. Values joined by “and” are separate entries in the source; they are usually repeats but may differ in a detail not shown here. Identical values can stand only once.
Legend:
[1] = test system: La; design: species or system mice and rats; conditions: in vivo
[2] = test system: acceptor regions of chromatin of tumoral and normal cells (kidney tumor PA, normal kidney); assay: Penetration into the cell nucleus and interaction with chromatin; design: species or system line Wistar; conditions: kidney tumor PA of rats
[3] = test system: S-180; design: species or system mice and rats; conditions: in vivo
[4] = Toxicological study, limiting toxicity
[5] = test system: grafted hemoblastoses and solid tumors; assay: Antitumor activity, summary over the tumor models; assay type: in vivo, mice and rats
Source text: (§1) For the study of the antitumor activity of the compounds according to the present invention use was made of regrafted hemoblastoses, grafted solid tumors, induced and spontaneous tumors of mice and rats. The following models were used: L 1210, P-388, hemocytoblastosis La, MOPC-406, viral lympholeukosis Mazurenko LMC-1, Ca-755, mammary carcinoma metastasizing into lungs KML, alveolar mammary cancer RMK-1, small intenstine adenocarcinoma AKATON, large intestine adenocarcinoma AKATOL, Lewis lung carcinoma LL, lung adenocarcinoma RL-67, hepatomae G-22c, G-60, G-61, sarcomae S-37 and S-180, DMBA (dimethylbenzanthracene)-induced and spontaneous mammary tumors, and […] (dimethylhydrazine)-induced tumors of the large intestine.
(§2) The studies were carried out on line mice and their first-generation hybrids, as well as on mongrel mice and rats.
(§3) The compounds were administered to the animals hypodermally in kernel oil. For the purpose of comparison, a known hormonocytostatic estracyte (estra-1,3,5-(10)treine-3,17β-diol-3N-[bis-(2-chloroethyl)carbamate-17-sodium phosphate] was used which was administered hypodermally in a solution of a 0.9% NaCl, chlorphenacyl and chloroambucyl which were administered intraperitoneally in a 10% solution of ethanol, sarcolysine (β-[p-di(2-chloroethyl)aminophenyl]-α-alanine hydrochloride)--intraperitoneally in a 0.9% solution of NaCl, prednisolone (pregnadiene-1,4-triol-11β,17α,21-dione-3,20)--per os in a starch size.
(§4) Criteria of the antitumor activity of the compounds according to the present invention are: extension of the lifespan of the animals (ELA, %) and tumor growth inhibition (TGI, %). [formula] T--average lifespan of the treated animals; C--average lifespan of the control animals. [formula] O--average tumor volume in the group of treated animals; K--average tumor volume in the group of control animals.

[6] = test system: Small intestine adenocarcinoma AKATON; assay: Duration of the antitumor effect, small intestine adenocarcinoma AKATON; assay type: in vivo, mice and rats
Source text: as §1, §2, §3, §4

[7] = test system: Breast carcinoma metastasizing into lungs KML; assay: Duration of the antitumor effect, breast carcinoma KML; assay type: in vivo, mice and rats
Source text: as §1, §2, §3, §4

[8] = test system: Hepatoma G-22c; assay: Antitumor effect on grafted hepatoma G-22c; assay type: in vivo, mice and rats; conditions: in vivo
[9] = test system: Viral leukosis Mazurenko LMC-1; assay: Antitumor effect on grafted hemoblastoses (LMC-1), extension of lifespan; assay type: in vivo, mice and rats; conditions: in vivo
[10] = target: T1, cytoplasmatic receptors of glucocorticoids (Homo sapiens, UniProt P04150); assay: Interaction with cytoplasmatic receptors of glucocorticoids; assay type: binding
T1 construct: cytoplasmatic receptors of glucocorticoids
Source text: (§5) The hormonal effect of 11-desoxy-17α-hydroxy-21-[p-di-(2-chloroethyl)aminophenylacetate] corticosterone is associated with exhibition of a glucocorticoidal activity thereby.

[11] = test system: cytoplasmatic receptors of glucocorticoids in human lung cancer; assay: Inhibition of specific combining of [^3 H]-dexamethazone, human lung cancer; assay type: binding
Source text: (§6) The inhibition, thereby, of a specific combining of [^3 H]-dexamethazone in tumors of animals reaches 70-100%. 11-Desoxy-17-α-hydroxy-21-[p-di(2-chloroethyl)aminophenylacetate] corticosterone also reacts with cytoplasmatic receptors of glucocorticoids in tumors in human beings.

[12] = test system: Lung adenocarcinoma RL-67; assay: Duration of the antitumor effect, lung adenocarcinoma RL-67; assay type: in vivo, mice and rats
Source text: as §1, §2, §3, §4

[13] = test system: receptors of glucocorticoids in grafted tumors of animals (RL-67, G-60, G-61, G-22c, Ca-755, S-37, AKATOL, AKATON); assay: Inhibition of specific combining of [^3 H]-dexamethazone in grafted tumors of animals; assay type: binding
Source text: as §6

[14] = test system: DNA of normal (spleen) cells; assay: Regeneration of injured DNA in normal tissue vs tumor tissue; conditions: compared with tumor tissue
[15] = test system: animals; assay: Estral response in animals; conditions: in vivo
Source text: as §5

[16] = in vivo; conditions: mouse
[17] = test system: mice; conditions: mouse, in vivo
[18] = test system: DMBA-induced mammary tumors of rats; assay: Effect on DMBA-induced breast tumors in repeated treatment courses; assay type: in vivo
Source text: as §1, §3, §4
In the case of using spontaneous or induced tumors, by means of carcinogenic substances, the criteria of the antitumor effect are: TGI, % or decrease in the tumor size, %, as compared to its initial value. The treatment of spontaneous and induced tumors was initiated after achieving, by these tumors, of a particular size excluding the possibility of a spontaneous regression.

[19] = test system: Hepatoma G-61; assay: Antitumor effect on grafted hepatoma G-61; assay type: in vivo, mice and rats; conditions: in vivo
[20] = test system: MOPG-406; assay: Antitumor effect on grafted hemoblastoses (MOPC-406), extension of lifespan; assay type: in vivo, mice and rats; conditions: in vivo
[21] = test system: DNA of sarcoma S-37 cells; assay: Cross-linking and ruptures in DNA of tumoral cells (alkaline saccharose gradient sedimentation)
[22] = test system: Hepatoma G-60; assay: Antitumor effect on grafted hepatoma G-60; assay type: in vivo, mice and rats; conditions: in vivo

T1 sequence (P04150 whole entry): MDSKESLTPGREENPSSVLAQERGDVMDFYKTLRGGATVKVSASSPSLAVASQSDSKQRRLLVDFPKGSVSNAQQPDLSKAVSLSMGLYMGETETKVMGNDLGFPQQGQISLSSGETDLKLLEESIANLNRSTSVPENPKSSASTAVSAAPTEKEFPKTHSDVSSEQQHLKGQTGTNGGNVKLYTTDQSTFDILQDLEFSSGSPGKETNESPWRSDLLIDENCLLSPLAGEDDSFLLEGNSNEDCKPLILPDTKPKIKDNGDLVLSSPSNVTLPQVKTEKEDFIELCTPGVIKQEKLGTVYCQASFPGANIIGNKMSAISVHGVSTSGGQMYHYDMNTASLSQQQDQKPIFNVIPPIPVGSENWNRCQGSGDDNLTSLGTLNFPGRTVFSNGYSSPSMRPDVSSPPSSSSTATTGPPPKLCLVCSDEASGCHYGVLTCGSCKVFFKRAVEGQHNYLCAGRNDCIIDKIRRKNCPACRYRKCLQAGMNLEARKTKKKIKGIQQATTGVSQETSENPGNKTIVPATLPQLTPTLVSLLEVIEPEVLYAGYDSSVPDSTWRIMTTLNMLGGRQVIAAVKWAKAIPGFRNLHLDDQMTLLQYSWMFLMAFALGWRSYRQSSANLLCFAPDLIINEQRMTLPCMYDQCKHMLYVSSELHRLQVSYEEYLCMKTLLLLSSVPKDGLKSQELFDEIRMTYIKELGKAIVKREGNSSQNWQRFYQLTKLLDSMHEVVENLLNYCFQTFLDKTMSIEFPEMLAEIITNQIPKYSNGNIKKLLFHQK

C[C@]12CCC(=O)C=C1CC[C@@H]1[C@@H]2CC[C@@]2(C)[C@H]1CC[C@]2(O)C(=O)COC(=O)Cc1ccc(N(CCCl)CCCl)cc1 [11-desoxy-17α-hydroxy-21-[p-di(2-chloroethyl)-aminophenylacetate] corticosterone]
Extension of the lifespan of the animals (ELA) [1]: 105% | penetration into cell nucleus and interaction with chromatin [2]: penetrates into the cell nucleus and interacts with acceptor regions of chromatin of both tumoral and normal cells | Maximum tumor growth inhibition [3]: 93% and 92% | limiting toxicity ([4]; degree depends on the dose): gastroenteral and neurotoxicity (diarrhea, vomition, convulsions) | hematotoxicity ([4]; mouse, in vivo): does not restrict the administration | inhibits growth of substantially all tumors ([5]; Table 2 summary, grafted solid tumors): 80-99% | duration of tumor growth inhibition after completion of the treatment course ([5]; Table 3 summary): ≥ 1 month | extension of the lifespan of the animals as compared to the control ([5]; Table 3 summary): 27-73% | antitumor effect compared with reference agents ([5]; in vivo): considerably superior, as regards its activity on numerous models, over the known alkylating preparation sarcolysine | Extension of the lifespan ([6]; 15 mg/kg/24 h × 5, days 2-6): 46% | Tumor growth inhibition ([6]; 15 mg/kg/24 h × 5, days 2-6, day 15 of experiment): 66% | Tumor growth inhibition ([6]; 15 mg/kg/24 h × 5, days 2-6, day 22 of experiment): 55% | Tumor growth inhibition ([6]; 15 mg/kg/24 h × 5, days 2-6, day 29 of experiment): 46% | Extension of the lifespan ([7]; 45 mg/kg × 1, day 10): 57% | Tumor growth inhibition ([7]; 45 mg/kg × 1, day 10, day 15 of experiment): 80% | Tumor growth inhibition ([7]; 45 mg/kg × 1, day 10, day 22 of experiment): 53% | Tumor growth inhibition ([7]; 45 mg/kg × 1, day 10, day 29 of experiment): 61% | Extension of the lifespan [8]: 65% | Maximum tumor growth inhibition [8]: 80% | Tumor growth inhibition [8]: 80% and 68% and 57% | Extension of the lifespan of the animals (ELA) [9]: 344% | cure [9]: 33% | pKd [10]: 7.02 | interaction with cytoplasmatic receptors of glucocorticoids ([10]; [^3 H]-dexamethazone): interacts with cytoplasmatic receptors of glucocorticoids and inhibits combining of [^3 H]-dexamethazone therewith | inhibition of specific combining of [^3 H]-dexamethazone [11]: 83% | Extension of the lifespan ([12]; 45 mg/kg × 1, day 2): 27% | Tumor growth inhibition ([12]; 45 mg/kg × 1, day 2, day 15 of experiment): 81% | Tumor growth inhibition ([12]; 45 mg/kg × 1, day 2, day 22 of experiment): 82% | Tumor growth inhibition ([12]; 45 mg/kg × 1, day 2, day 29 of experiment): 80% | reaction with receptors of glucocorticoids in grafted tumors ([13]; RL-67, G-60, G-61, G-22c, Ca-755, S-37, AKATOL, AKATON): reacts with receptors of glucocorticoids in grafted tumors of animals | inhibition of specific combining of [^3 H]-dexamethazone ([13]; tumors of animals): 70-100% | regeneration of injured DNA in normal tissue [14]: starts earlier than in the tumor tissue | estral response [15]: short-time estral response | LD50 [16]: 80 mg/kg | MTD [16]: 44 mg/kg | toxicity lower than that of chlorophenacyl [17]: 3 times | Increased lifespan ([18]; DMBA-induced, rats, 15 mg/kg/24 h × 5, 2 courses, 5 weeks interval): 18% | Decrease or increase (+) of the tumor, % of the initial one ([18]; DMBA-induced, rats, 15 mg/kg/24 h × 5, 2 courses, 5 weeks interval, week 1): 33% | Decrease or increase (+) of the tumor, % of the initial one ([18]; DMBA-induced, rats, 15 mg/kg/24 h × 5, 2 courses, 5 weeks interval, week 2): 32% | Decrease or increase (+) of the tumor, % of the initial one ([18]; DMBA-induced, rats, 15 mg/kg/24 h × 5, 2 courses, 5 weeks interval, week 3): 11% | Decrease or increase (+) of the tumor, % of the initial one ([18]; DMBA-induced, rats, 15 mg/kg/24 h × 5, 2 courses, 5 weeks interval, week 4): 24% | Decrease or increase (+) of the tumor, % of the initial one ([18]; DMBA-induced, rats, 15 mg/kg/24 h × 5, 2 courses, 5 weeks interval, week 5): +26% | Decrease or increase (+) of the tumor, % of the initial one ([18]; DMBA-induced, rats, 15 mg/kg/24 h × 5, 2 courses, 5 weeks interval, week 6): 23% | Decrease or increase (+) of the tumor, % of the initial one ([18]; DMBA-induced, rats, 15 mg/kg/24 h × 5, 2 courses, 5 weeks interval, week 7): +3% | Decrease or increase (+) of the tumor, % of the initial one ([18]; DMBA-induced, rats, 15 mg/kg/24 h × 5, 2 courses, 5 weeks interval, week 8): 13% | reduction in size of induced tumors in breasts ([18]; compared to the size prior to the treatment): causes reduction in size of induced and spontaneous tumors | Maximum tumor growth inhibition [19]: 89% | Extension of the lifespan of the animals (ELA) [20]: 76% | number and duration of retention of cross-linking in DNA molecules of S-37 cells [21]: superior to chlorophenacyl | Maximum tumor growth inhibition [22]: 99%
